Where a chain is given by its changes, count along the chain named. Like-named read-outs stand apart in the source and are kept apart here.
Legend:
[1] = target: T1, human Wip1 protein (rWip1, catalytic domain, residues 1-420) (Homo sapiens, UniProt O15297); assay: Wip1 phosphatase assay (malachite green/molybdate-based)
T1 sequence (O15297 1-420): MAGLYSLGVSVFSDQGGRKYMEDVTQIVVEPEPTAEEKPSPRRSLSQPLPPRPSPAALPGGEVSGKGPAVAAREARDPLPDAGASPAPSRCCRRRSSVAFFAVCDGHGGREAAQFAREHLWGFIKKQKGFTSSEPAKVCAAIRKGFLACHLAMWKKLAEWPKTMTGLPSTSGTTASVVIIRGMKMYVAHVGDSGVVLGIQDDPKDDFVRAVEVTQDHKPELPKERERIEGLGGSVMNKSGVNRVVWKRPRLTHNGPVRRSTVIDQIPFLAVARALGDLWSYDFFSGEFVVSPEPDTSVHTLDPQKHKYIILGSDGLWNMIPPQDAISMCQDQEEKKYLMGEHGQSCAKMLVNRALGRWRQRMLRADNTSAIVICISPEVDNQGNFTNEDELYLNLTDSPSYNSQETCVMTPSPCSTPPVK
Method: (§1) An N-terminal histidine-tagged, catalytic domain of the human Wip1 protein (amino acid residues 1-420), rWip1, and K238D mutant of Wip1 were expressed in Escherichia coli BL21 (DE3) and purified as previously reported in Yamaguchi et al., supra.
(§2) Phosphatase activity was measured by a malachite green/molybdate-based assay (see, e.g., Yamaguchi et al., Biochemistry, 44:5285-5294 (2005), Harder et al, Biochem J., 298: 395-401 (1994), and Donella-Deana et al., Methods Enzymol., 366: 3-17 (2003)). […] The inhibitors were pre-equilibrated at 30° C. for 6 min. The inhibition percentages were estimated by the following equation.
(§3) where A and A100 denote absorbance intensities at 650 nm with and without the inhibitor, respectively. A0 denotes absorbance of the sample without phosphatase. The IC50 values were estimated by a sigmoidal dose-response equation. The apparent inhibitory constant (Ki) values were estimated using the following equation (see, e.g., Cheng et al., Biochem. Pharmacol., 22: 3099-3108 (1973)):

Wip1(K238D) = target: T2, Wip1(K238D) (Homo sapiens, UniProt O15297, K238D); assay: Phosphatase assay with the K238D mutant of Wip1; conditions: for Ki: read-out: Ki (μM) Wip1(K238D), Table 2, K238D mutant of Wip1, NI = no inhibition observed
T2 sequence (O15297 1-420 K238D): T1 sequence (O15297 1-420) with K238D
Method: (§4) The inhibitors were pre-equilibrated at 30° C. for 6 min. The inhibition percentages were estimated by the following equation.
as §3
(§5) wherein [S] is the concentration of the substrate peptide and Km is the Michaelis constant.
(§6) The selectivity of the compounds was determined. Certain compounds were tested to determine their selectivity in inhibiting Wip1, PP2Cα, and a K238D mutant of Wip1 according to the methods described above.

PP2Cα = target: T3, PP2Cα (Homo sapiens, UniProt P35813); assay: Phosphatase assay with PP2Cα; conditions: for Ki: read-out: Ki (μM) PP2Cα, Table 2, NI = no inhibition observed
T3 sequence (P35813 1-382): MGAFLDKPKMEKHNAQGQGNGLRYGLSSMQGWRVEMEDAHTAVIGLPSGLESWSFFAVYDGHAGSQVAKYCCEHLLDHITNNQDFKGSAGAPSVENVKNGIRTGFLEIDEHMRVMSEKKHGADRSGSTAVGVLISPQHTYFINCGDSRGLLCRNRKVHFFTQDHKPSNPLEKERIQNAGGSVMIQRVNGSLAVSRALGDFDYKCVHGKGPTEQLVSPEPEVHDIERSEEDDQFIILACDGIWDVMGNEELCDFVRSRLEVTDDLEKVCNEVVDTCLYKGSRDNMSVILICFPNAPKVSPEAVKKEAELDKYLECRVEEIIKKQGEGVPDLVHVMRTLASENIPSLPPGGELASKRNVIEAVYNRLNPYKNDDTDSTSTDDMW
Method: as §4, §3, §5, §6

[2] = test system: human Wip1 protein (rWip1, catalytic domain, residues 1-420); assay: Wip1 phosphatase assay (malachite green/molybdate-based); conditions: versus K238D mutant and PP2Cα
Method: as §1, §2, §3

Wip1 in MCF7 cells = assay: Western blot of phospho-p38 MAPK and p38 MAPK in MCF7 cells treated with compound; assay type: cell-based, human; conditions: DMSO negative and UV (25J/m2) positive controls
Method: The selectivity of three compounds in inhibiting Wip1 was tested on human breast cancer cell line MCF7 cells, the latter strongly expressing Wip1. These cells were treated with each compound, and cell lysates were collected after the indicated time point. 20 ug of total protein extracts were subjected to SDS-PAGE, and levels of phospho-p38 MAPK and p38 MAPK were examined by Western blot analysis using specific antibodies. Dimethyl sulphoxide (DMSO) and UV (25J/m2) treated cells were used as the negative and positive controls respectively.

## CC(C)Cc1c(-c2ccc(OP(=O)(O)O)c(Cl)c2)c(C(N)=O)c(Cc2ccc(Cl)cc2)n1CCCOP(=O)(O)O [Compound 21]
[1]
  Ki: 22 ± 1 µM

## CCCCCc1c(-c2ccc(OP(=O)(O)O)c(Cl)c2)c(C(N)=O)c(C)n1CCOP(=O)(O)O [Compound 5]
[1]
  Ki: 77 ± 12 µM

## CCCC(C)Cc1c(-c2ccc(OP(=O)(O)O)cc2)c(C(N)=O)c(CC(C)C)n1CCCOP(=O)(O)O (stereo not drawn) [Compound 15]
[1]
  Ki: 48 ± 5 µM

## CCCc1c(-c2ccc(OP(=O)(O)O)cc2)c(C(N)=O)c(C)n1CCOP(=O)(O)O [Compound 2]
[1]; pH 7.5
  Ki: > 100 µM

## CCCC(C)Cc1c(-c2ccc(OP(=O)(O)O)cc2)c(C(N)=O)c(C)n1CCCOP(=O)(O)O (stereo not drawn) [Compound 9]
[1]
  Ki: 22 ± 3 µM

## CCCC(C)Cc1c(-c2ccc(OP(=O)(O)O)c(Cl)c2)c(C(N)=O)c(Cc2ccc(F)cc2)n1CCCOP(=O)(O)O (stereo not drawn) [Compound 23]
[1]
  Ki: 16 ± 2 µM

## CCCC(C)Cc1c(-c2ccc(OP(=O)(O)O)c(Cl)c2)c(C(N)=O)c(C)n1CCCCOP(=O)(O)O (stereo not drawn) [Compound 11]
[1]; pH 7.5
  Ki: > 100 µM

## CCCC(C)Cc1c(-c2ccc(OP(=O)(O)O)c(Cl)c2)c(C(N)=O)c(CCc2ccc(Cl)cc2)n1CCCOP(=O)(O)O (stereo not drawn) [Compound 24]
Wip1(K238D)
  inhibition of the K238D mutant: no inhibition
  Ki: > 100 µM
PP2Cα
  inhibition of PP2Cα: no inhibition
  Ki: > 100 µM
[2]
  selectivity for Wip1: highly selective
[1]
  Ki: 5.7 ± 0.4 µM

## CCCC(C)Cc1c(-c2ccc(OP(=O)(O)O)c(Cl)c2)c(C(N)=O)c(C)n1CCOP(=O)(O)O (stereo not drawn) [Compound 7]
[1]
  Ki: 40 ± 1 µM

## CCCCC(C)c1c(C(N)=O)c(-c2ccc(OP(=O)(O)O)c(Cl)c2)c(C)n1CCCOP(=O)(O)O (stereo not drawn) [Compound 14]
[1]; pH 7.5
  Ki: > 100 µM

## CCCC(C)Cc1c(-c2ccc(OP(=O)(O)O)cc2)c(C(N)=O)c(C)n1CCOP(=O)(O)O (stereo not drawn) [Compound 3]
[1]
  Ki: 61 ± 15 µM

## Cc1c(C(N)=O)c(-c2ccc(OP(=O)(O)O)c(Cl)c2)c(CC(C)C)n1CCOP(=O)(O)O [Compound 6]
[1]
  Ki: 38 ± 8 µM

## CCC[C@@H](C)Cc1c(-c2ccc(OP(=O)(O)O)c(Cl)c2)c(C(N)=O)c(CCc2ccc(Cl)cc2)n1CCCOP(=O)(O)O [Compound 26]
Wip1(K238D)
  inhibition of the K238D mutant: no inhibition
  Ki: > 100 µM
PP2Cα
  inhibition of PP2Cα: no inhibition
  Ki: > 100 µM
[2]
  selectivity for Wip1: highly selective
[1]
  Ki: 10 ± 1 µM

## CCCC(C)Cc1c(-c2ccc(OP(=O)(O)O)c(Cl)c2)c(C(=O)NC(CC(C)C)C(N)=O)c(C)n1CCCOP(=O)(O)O (stereo not drawn) [Compound 13]
[1]
  Ki: 22 ± 2 µM

## CCC[C@H](C)Cc1c(-c2ccc(OP(=O)(O)O)c(Cl)c2)c(C(N)=O)c(CCc2ccc(Cl)cc2)n1CCCOP(=O)(O)O [Compound 25]
Wip1(K238D)
  inhibition of the K238D mutant: no inhibition
  Ki: > 100 µM
PP2Cα
  inhibition of PP2Cα: no inhibition
  Ki: > 100 µM
[2]
  selectivity for Wip1: highly selective
[1]
  Ki: 4.7 ± 0.7 µM

## CCc1c(-c2ccc(OP(=O)(O)O)cc2)c(C(N)=O)c(C)n1CCOP(=O)(O)O [Compound 1]
[1]; pH 7.5
  Ki: > 100 µM

## CCCC(C)Cc1c(-c2ccc(OP(=O)(O)O)c(Cl)c2)c(C(N)=O)c(CCc2ccccc2)n1CCCOP(=O)(O)O (stereo not drawn) [Compound 18]
[1]
  Ki: 15 ± 1 µM

## Cc1c(C(N)=O)c(-c2ccc(OP(=O)(O)O)cc2)c(CC2CCCCC2)n1CCOP(=O)(O)O [Compound 4]
[1]
  Ki: 81 ± 5 µM

## CCCCC(CCCC)Cc1c(-c2ccc(OP(=O)(OCCSC(=O)C(C)(C)C)Oc3ccccc3)c(Cl)c2)c(C(=O)O)c(Cc2ccc(Cl)cc2)n1CCCOP(=O)(OCCSC(=O)C(C)(C)C)Oc1ccccc1 (stereo not drawn) [Compound 1A]
Wip1 in MCF7 cells
  effectiveness in inhibiting Wip1 (levels of phospho-p38 MAPK): effective

## Cc1c(C(N)=O)c(-c2ccc(OP(=O)(O)O)c(Cl)c2)c(CC(C)C)n1CCCOP(=O)(O)O [Compound 10]
[1]
  Ki: 28 ± 1 µM

## CCCC(C)Cc1c(-c2ccc(OP(=O)(O)O)c(Cl)c2)c(C(=O)NCCC(N)=O)c(C)n1CCCOP(=O)(O)O (stereo not drawn) [Compound 12]
[1]; pH 7.5
  Ki: > 100 µM
